Laboratory results: patent publication US20250002854A1, “METHODS OF GENERATING POPULATIONS OF TUMOUR-INFILTRATING T CELLS” (LYTIX BIOPHARMA AS, priority 2016, published 2025)
Square brackets hold non-standard residues; d marks the D form. Ends that are not written are not given here. Dip = N[C@H](C(=O)O)C(c1ccccc1)c1ccccc1

Legend:
[1] = system: HEPG2; experiment: In vitro cytotoxicity, MTT assay; format: cell-based; conditions: HEPG2 human hepatocellular carcinoma
Text: (§1) JM1, a rat hepatocellular carcinoma, HEPG2 and BEL7402, both human hepatocellular carcinomas, were kindly provided by Dr. Pål-Dag Line, Director, Department of Transplantation Medicine, Oslo University Hospital. B16F1 (ATCC, CRL-6323), a murine skin malignant melanoma, MDA-MB-435S (HTB-129), a human malignant melanoma originating from a breast metastases, Malme-3M (HTB-64), a human malignant melanoma derived from a lung metastases, MRC-5 (ATCC, CCL-171), normal human lung fibroblasts, SK-N-AS (ATCC, CRL-2137), a human neuroblastoma cell line derived from a bone marrow metastases, HT-29 (ATCC, HTB-38), a human colorectal adenocarcinoma and HUV-EC-C (ATCC, CRL-1730), a human vascular endothelium cell line, were all purchased from the American Type Culture Collection (ATCC-LGC Standards, Rockville, MD, USA). HaCat, a human keratinocyte cell line, was kindly provided by Dr. Ingvild Pettersen, Department of Host Microbe Interactions, University of Tromsø. A375, a malignant melanoma cell line of human origin, was purchased from Public Health England (PHE Culture Conditions, Porton, Down, Salisbury, UK). JM1, A375, BEL7402, HEPG2 and B16F1 were all maintained in culture media consisting of DMEM (high glucose), while SK-N-AS, HT-29 and MDA-MB-435S were cultured in an RPMI-1640 medium containing 2 mM L-glutamine and sodium bicarbonate. Malme-3M was cultured in RPMI-1640, containing 4 mM L-glutamine and 20% FBS (fetal bovine serum). Lastly, the three non-malignant cell lines, HUV-EC-C, MRC-5 and HaCat, were cultured, respectively, using the EGM-2 BulletKit (Lonza, MA), containing basal media and growth factors, MEM (normal glucose) also containing 2 mM L-glutamine and 1% non-essential amino acids and DMEM (normal glucose) containing 2 mM L-glutamine. All media were (if not specified otherwise) supplemented with 10% FBS, with the exception of the EGM-2 BulletKit, which is delivered with an aliquot of 10 ml FBS to yield a final concentration of 2% FBS in solution. […]

[2] = system: MDA-MB-435S; experiment: In vitro cytotoxicity, MTT assay; format: cell-based; conditions: MDA-MB-435S human malignant melanoma
Text: as §1

[3] = system: remaining cell lines; experiment: In vitro cytotoxicity, MTT assay; format: cell-based
Text: as §1

[4] = system: B16F1 cells; experiment: In vitro cytotoxicity, MTT assay (IC50 4h); format: cell-based, murine; conditions: B16F1, 4 h
Text: as §1, with “bicarbonate.” for “bicarbonate. Malme-3M was cultured in RPMI-1640, containing 4 mM L-glutamine and 20% FBS (fetal bovine serum). Lastly, the three non-malignant cell lines, HUV-EC-C, MRC-5 and HaCat, were cultured, respectively, using the EGM-2 BulletKit (Lonza, MA), containing basal media and growth factors, MEM (normal glucose) also containing 2 mM L-glutamine and 1% non-essential amino acids and DMEM (normal glucose) containing 2 mM L-glutamine. All media were (if not specified otherwise) supplemented with 10% FBS, with the exception of the EGM-2 BulletKit, which is delivered with an aliquot of 10 ml FBS to yield a final concentration of 2% FBS in solution.”

[5] = system: B16F1 melanoma cells; experiment: Kill kinetics (MTT); format: cell-based, murine
Protocol: Cells were seeded as previously described for MTT assay, and incubated with LTX-401 solutions for 5, 15, 30, 60, 90, 120 and 240 minutes. Cells were washed once with 100 μl of serum-free RPMI-1640 after incubation, and further incubated in a 10% MTT solution (diluted in a serum-free RPMI-1640) for an additional 2 h.

[6] = system: B16F1 cells; experiment: Release of cytochrome c (ELISA); format: cell-based, murine; conditions: 108 μM
Protocol: B16F1 cells were plated onto 96-well culture plates as previously described above for the MTT assay. Cells were treated with 108 μM (4×IC50^4h) for designated time points (30, 60, 90, 120 and 240 minutes), while control cells were preserved in serum-free RPMI-1640 only until the experimental endpoint. Supernatants were collected and diluted 1/5 in a serum-free RPMI 1640 before being evaluated using a Rat/Mouse Cytochrome c Quantikine ELISA kit (R&D Systems, USA), according to the instructions of the manufacturer. The concentration of cytochrome c was calculated by interpolation values on the provided standard curve.

[7] = system: A375 cells; experiment: Confocal microscopy, internalization of fluorescence-labeled peptide; format: cell-based, human
Protocol: The A375 cell line A375 (ECACC, 88113005) is a human malignant melanoma derived from patient material, and was purchased from Public Health England (PHE Culture Collections, Porton Down, Salisbury, UK). Cells were maintained as monolayer cultures in high glucose […] DMEM supplemented with 10% FBS and 1% L-glutamine, but not as antibiotics (complete media). The cell line was grown in a humidified 5% CO2 atmosphere at 37° C., and was regularly tested for the presence of mycoplasma with MycoAlert (Lonza).
Fixed cells, fluorescence-labeled peptide—Subconfluential A375 cells were seeded at 8,000 cells/well as above, and transfected on the second day using the Lipofectamine LTX with Plus transfection reagents (Invitrogen) following the manufacturer's protocol. The mitochondria were labeled using the pDsRed2-Mito, and the nucleus was labeled using the GFP-Histon2B plasmid (Imaging Platform, University of Tromsø). A day after transfection, cells were washed twice with serum-free RPMI, and treated at different concentration and incubation periods with LTX-315 Pacific Blue or LTX-328 Pacific Blue. […] Control cells were treated with unlabeled LTX-315 and also with serum-free RPMI only. After incubation, cells were fixed with 4% paraformaldehyde in PBS, and the wells were covered with Prolong Gold antifade (Invitrogen). Cells were further analyzed by use of a Leica TCS SP5 confocal microscope, with a […] objective. Pacific Blue, GFP and Ds Red were excited using UV, with 488 and 561 lasers, and fluorescence channels were sequentially detected using the following band passes: UV: 420-480 nm (with attenuation), 488: 501-550 nm and 561: 576-676 nm.

| Compound | IC50 [1] [µM] | IC50 [2] [µM] | IC50 [3] [µM] | IC50 [4] [µM] | cell survival ([5]; 54 μM, after two hours) [%] | time until cellular survival reduced to a minimum ([5]; 108 μM) [min] | kill ratio ([5]; 108 μM, after 15 min) [%] | cell death ([5]; 108 μM, two hours after start of treatment) [%] | time at which cytochrome c is present in the supernatant [6] [min] | cytochrome c in supernatant, peak ([6]; experimental endpoint) | accumulation of labelled peptide around the mitochondria ([7]; 1.5 μM, 30 minutes) | detection of labelled peptide in the cell nucleus ([7]; 1.5 μM, 30 minutes) | internalization of peptide ([7]; 3 μM, 60 min) | internalization of Pacific Blue-labelled peptide ([7]; A375 cells, 3 μM and 1.5 μM) |
| --- | --- | --- | --- | --- | --- | --- | --- | --- | --- | --- | --- | --- | --- | --- |
| Cl.Cl.NCCNC(=O)C(CN)(CCCc1ccccc1)CCCc1ccccc1 [LTX-401] | 35.4 | 13.5 | 19 to 32 | 27 | 50 | 90 to 120 | 50 | ~100 | 120 | approximately 40 ng/ml |  |  |  |  |
| K-K-W-W-K-K-W-Dip-K-NH2 (KKWWKKW[Dip]K-NH2) [LTX-315] |  |  |  |  |  |  |  |  |  |  | showed an accumulation around the mitochondria | not detected in the cell nucleus | detected in the cytoplasm | rapidly penetrated the plasma membrane |
